In PubChem BioAssay (NCI):
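Five concentrations, 48 hours, 96-well plates. GI50 = concentration required for 50% inhibition of growth. TGI: concentration producing complete growth inhibition.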

Key:
Assay in all cases: NCI tumour cell line growth inhibition, 48 h
[1] = tested on: 786-0 renal
[2] = tested on: A498 renal
[3] = tested on: A549 NSCLC
[4] = tested on: ACHN renal
[5] = tested on: BT-549 breast
[6] = tested on: CAKI-1 renal
[7] = tested on: CCRF-CEM leukemia
[8] = tested on: COLO 205 colon
[9] = tested on: DU-145 prostate
[10] = tested on: EKVX NSCLC
[11] = tested on: HCC-2998 colon
[12] = tested on: HCT-116 colon
[13] = tested on: HCT-15 colon
[14] = tested on: HL-60(TB) leukemia
[15] = tested on: HOP-62 NSCLC
[16] = tested on: HOP-92 NSCLC
[17] = tested on: HS 578T breast
[18] = tested on: HT29 colon
[19] = tested on: IGROV1 ovarian
[20] = tested on: K-562 leukemia
[21] = tested on: KM12 colon
[22] = tested on: LOX IMVI melanoma
[23] = tested on: M14 melanoma
[24] = tested on: MALME-3M melanoma
[25] = tested on: MCF7 breast
[26] = tested on: MDA-MB-231 breast
[27] = tested on: MDA-MB-435
[28] = tested on: MDA-MB-468 breast
[29] = tested on: MOLT-4 leukemia
[30] = tested on: NCI-H226 lung
[31] = tested on: NCI-H23 lung
[32] = tested on: NCI-H460 lung
[33] = tested on: NCI-H522 lung
[34] = tested on: NCI/ADR-RES ovarian
[35] = tested on: OVCAR-3 ovarian
[36] = tested on: OVCAR-4 ovarian
[37] = tested on: OVCAR-5 ovarian
[38] = tested on: OVCAR-8 ovarian
[39] = tested on: PC-3 prostate
[40] = tested on: RPMI-8226 leukemia
[41] = tested on: RXF 393 renal
[42] = tested on: SF-268 CNS
[43] = tested on: SF-295 CNS
[44] = tested on: SF-539 CNS
[45] = tested on: SK-MEL-2 melanoma
[46] = tested on: SK-MEL-28 melanoma
[47] = tested on: SK-MEL-5 melanoma
[48] = tested on: SK-OV-3 ovarian
[49] = tested on: SN12C renal
[50] = tested on: SNB-19 CNS
[51] = tested on: SNB-75 CNS
[52] = tested on: SR leukemia
[53] = tested on: SW-620 colon
[54] = tested on: T-47D breast
[55] = tested on: TK-10 renal
[56] = tested on: U251 CNS
[57] = tested on: UACC-257 melanoma
[58] = tested on: UACC-62 melanoma
[59] = tested on: UO-31 renal

## Cc1ccc2c(c1)/C(=C/C(=O)c1cc3ccccc3oc1=O)C(=O)N2
[1]
  GI50: 18.5 µM
  TGI: 32.4 µM
[2]
  GI50: > 100 µM
  TGI: > 100 µM
[3]
  GI50: 34.5 µM
  TGI: > 100 µM
[4]
  GI50: 9.6 µM
  TGI: 21.3 µM
[5]
  GI50: 17.6 µM
  TGI: 33.7 µM
[6]
  GI50: 12.2 µM
  TGI: 25.3 µM
[7]
  GI50: 6.91 µM
  TGI: 56.5 µM
[8]
  GI50: 17.2 µM
  TGI: 32.4 µM
[9]
  GI50: 17.9 µM
  TGI: 32.4 µM
[10]
  GI50: 16.2 µM
  TGI: 29.9 µM
[11]
  GI50: 17.7 µM
  TGI: 32.8 µM
[12]
  GI50: 4.45 µM
  TGI: 16.8 µM
[13]
  GI50: 16.7 µM
  TGI: 32.8 µM
[14]
  GI50: 4.32 µM
  TGI: 23.1 µM
[15]
  GI50: > 100 µM
  TGI: > 100 µM
[16]
  GI50: 14.5 µM
  TGI: 28.4 µM
[17]
  GI50: 19.4 µM
  TGI: 84.6 µM
[18]
  GI50: 20.6 µM
  TGI: 40.5 µM
[19]
  GI50: 16.2 µM
  TGI: 29.9 µM
[20]
  GI50: 3.91 µM
  TGI: 48.7 µM
[21]
  GI50: > 100 µM
  TGI: > 100 µM
[22]
  GI50: 14.7 µM
  TGI: 27.9 µM
[23]
  GI50: 15.9 µM
  TGI: 29.8 µM
[24]
  GI50: 10.6 µM
  TGI: 22.5 µM
[25]
  GI50: 16.4 µM
  TGI: 34 µM
[26]
  GI50: 15 µM
  TGI: 28.2 µM
[27]
  GI50: 17.6 µM
  TGI: 33 µM
[28]
  GI50: 10.5 µM
  TGI: 23.9 µM
[29]
  GI50: 8.56 µM
  TGI: 43.2 µM
[30]
  GI50: 18.6 µM
  TGI: 46.8 µM
[31]
  GI50: 16.4 µM
  TGI: 32.8 µM
[32]
  GI50: > 100 µM
  TGI: > 100 µM
[33]
  GI50: 3.26 µM
  TGI: 11.5 µM
[34]
  GI50: 17.3 µM
  TGI: 34.4 µM
[35]
  GI50: 14.1 µM
  TGI: 27.3 µM
[36]
  GI50: 17.4 µM
  TGI: 33.3 µM
[37]
  GI50: 16.7 µM
  TGI: 30.3 µM
[38]
  GI50: 17.9 µM
  TGI: 34 µM
[39]
  GI50: 16.1 µM
  TGI: 36 µM
[40]
  GI50: 22.1 µM
  TGI: 63.9 µM
[41]
  GI50: 15.8 µM
  TGI: 29.3 µM
[42]
  GI50: 68.3 µM
  TGI: > 100 µM
[43]
  GI50: > 100 µM
  TGI: > 100 µM
[44]
  GI50: 16.2 µM
  TGI: 29.7 µM
[45]
  GI50: 21.1 µM
  TGI: 54.7 µM
[46]
  GI50: 17 µM
  TGI: 30.6 µM
[47]
  GI50: 24.9 µM
  TGI: 80.2 µM
[48]
  GI50: > 100 µM
  TGI: > 100 µM
[49]
  GI50: 16.9 µM
  TGI: 31.9 µM
[50]
  GI50: > 100 µM
  TGI: > 100 µM
[51]
  GI50: 82.1 µM
  TGI: > 100 µM
[52]
  GI50: 7.24 µM
  TGI: 74.7 µM
[53]
  GI50: 14.7 µM
  TGI: 30.4 µM
[54]
  GI50: 13 µM
  TGI: 34.5 µM
[55]
  GI50: 20 µM
  TGI: 34.7 µM
[56]
  GI50: 29.2 µM
  TGI: > 100 µM
[57]
  GI50: 15.7 µM
  TGI: 29.6 µM
[58]
  GI50: 15.5 µM
  TGI: 33 µM
[59]
  GI50: 11.3 µM
  TGI: 23.4 µM
